Drawing on ChEMBL document CHEMBL4321848 (J Med Chem, 2019), this text covers Ki and IC50 for 18 molecules.

In assay [1] the target is T1, Nicotinamide N-methyltransferase (Homo sapiens, UniProt P40261).
T1 sequence (P40261 whole entry): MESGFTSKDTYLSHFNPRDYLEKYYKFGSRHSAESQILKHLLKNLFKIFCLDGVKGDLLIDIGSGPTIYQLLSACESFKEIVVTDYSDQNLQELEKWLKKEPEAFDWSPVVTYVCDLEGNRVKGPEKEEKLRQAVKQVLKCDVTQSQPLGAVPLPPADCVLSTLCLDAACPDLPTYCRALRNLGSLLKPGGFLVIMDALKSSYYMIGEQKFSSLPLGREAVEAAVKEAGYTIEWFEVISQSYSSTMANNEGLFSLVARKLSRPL
The experiment in a line: biochemical.

In assay [2] the target is Indolethylamine N-methyltransferase (Homo sapiens, UniProt O95050). The experiment in a line: Inhibition of human N- terminal His6 tagged human INMT expressed in Escherichia coli BL21-CodonPlus(DE3)-RIL using tryptamine as substrate preincubated for 10 mins in presence of AdoMet followed by substrate addition by fluorescence based SAHH enzyme coupled assay.
The target in assay [3] is T2, Histone-lysine N-methyltransferase EHMT2 (Homo sapiens, UniProt Q96KQ7).
T2 sequence (Q96KQ7 whole entry): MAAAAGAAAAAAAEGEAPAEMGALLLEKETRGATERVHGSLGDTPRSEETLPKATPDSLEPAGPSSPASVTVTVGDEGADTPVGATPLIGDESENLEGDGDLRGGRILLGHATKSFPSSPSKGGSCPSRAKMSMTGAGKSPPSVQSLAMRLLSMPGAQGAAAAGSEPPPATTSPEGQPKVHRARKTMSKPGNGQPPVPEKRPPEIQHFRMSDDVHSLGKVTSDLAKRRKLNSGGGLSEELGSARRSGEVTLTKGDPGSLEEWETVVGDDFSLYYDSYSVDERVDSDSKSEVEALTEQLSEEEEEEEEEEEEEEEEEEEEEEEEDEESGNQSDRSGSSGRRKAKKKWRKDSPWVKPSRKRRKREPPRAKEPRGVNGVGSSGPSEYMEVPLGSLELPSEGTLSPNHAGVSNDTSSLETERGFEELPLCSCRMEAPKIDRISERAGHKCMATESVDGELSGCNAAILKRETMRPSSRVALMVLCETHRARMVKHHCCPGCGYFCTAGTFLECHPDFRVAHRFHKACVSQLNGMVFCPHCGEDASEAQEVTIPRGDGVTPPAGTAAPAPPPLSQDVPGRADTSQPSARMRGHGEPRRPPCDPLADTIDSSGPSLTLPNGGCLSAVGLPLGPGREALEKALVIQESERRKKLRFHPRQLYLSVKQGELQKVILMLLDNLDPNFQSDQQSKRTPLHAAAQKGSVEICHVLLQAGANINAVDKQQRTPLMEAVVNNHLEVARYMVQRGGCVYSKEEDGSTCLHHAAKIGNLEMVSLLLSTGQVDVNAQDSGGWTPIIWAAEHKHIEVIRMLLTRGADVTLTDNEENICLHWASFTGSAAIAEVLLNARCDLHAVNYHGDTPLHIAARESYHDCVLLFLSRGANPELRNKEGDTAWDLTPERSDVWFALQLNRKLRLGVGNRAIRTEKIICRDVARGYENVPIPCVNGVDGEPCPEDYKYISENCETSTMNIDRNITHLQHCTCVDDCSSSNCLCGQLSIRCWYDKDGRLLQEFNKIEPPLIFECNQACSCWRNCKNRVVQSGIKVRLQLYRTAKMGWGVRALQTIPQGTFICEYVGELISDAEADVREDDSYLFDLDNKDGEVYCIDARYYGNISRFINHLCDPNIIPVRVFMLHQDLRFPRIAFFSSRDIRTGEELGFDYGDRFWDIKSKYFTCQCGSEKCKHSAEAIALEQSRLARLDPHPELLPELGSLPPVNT
The experiment in a line: Inhibition of recombinant human G9a (913 to 1193 residues) expressed in Escherichia coli BL21-CodonPlus(DE3)-RIL using H3-21 peptide preincubated for 10 mins in presence of AdoMet followed by substrate addition by fluorescence based SAHH enzyme coupled assay.

For assay [4], the target named is T3, Phenylethanolamine N-methyltransferase (Homo sapiens, UniProt P11086).
T3 sequence (P11086 whole entry): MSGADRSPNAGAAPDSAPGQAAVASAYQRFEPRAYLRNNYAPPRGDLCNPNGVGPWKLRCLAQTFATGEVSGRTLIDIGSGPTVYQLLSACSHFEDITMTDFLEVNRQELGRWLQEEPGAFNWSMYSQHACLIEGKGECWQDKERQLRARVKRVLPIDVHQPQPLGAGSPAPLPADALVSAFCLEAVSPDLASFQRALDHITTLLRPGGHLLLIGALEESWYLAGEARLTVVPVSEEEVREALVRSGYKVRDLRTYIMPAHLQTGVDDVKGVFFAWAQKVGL
The experiment in a line: Inhibition of human N-terminal His6 tagged PNMT using norepinephrine as substrate preincubated for 10 mins in presence of AdoMet followed by substrate addition by fluorescence based SAHH enzyme coupled assay.

Assay [5] concerns the target T4, N-terminal Xaa-Pro-Lys N-methyltransferase 1 (Homo sapiens, UniProt Q9BV86).
T4 sequence (Q9BV86 whole entry): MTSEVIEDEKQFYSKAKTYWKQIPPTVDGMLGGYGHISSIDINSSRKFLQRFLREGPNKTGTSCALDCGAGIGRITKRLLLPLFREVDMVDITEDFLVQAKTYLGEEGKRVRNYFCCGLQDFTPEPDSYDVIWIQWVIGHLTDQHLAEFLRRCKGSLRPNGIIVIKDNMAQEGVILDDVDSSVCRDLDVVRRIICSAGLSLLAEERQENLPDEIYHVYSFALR
The experiment in a line: Inhibition of NTMT1 (unknown origin) using GPKRIA peptide as substrate preincubated for 10 mins in presence of AdoMet followed by susbtrate addition by fluorescence based SAHH enzyme coupled assay.

Another assay addresses Adenosylhomocysteinase (Homo sapiens, UniProt P23526). The experiment in a line: Inhibition of SAHH (unknown origin) using SAH as substrate preincubated for 10 mins followed by susbtrate addition by fluorescence based assay.
Assay [6] deals with T5, Histone-lysine N-methyltransferase SETD7 (Homo sapiens, UniProt Q8WTS6).
T5 sequence (Q8WTS6 whole entry): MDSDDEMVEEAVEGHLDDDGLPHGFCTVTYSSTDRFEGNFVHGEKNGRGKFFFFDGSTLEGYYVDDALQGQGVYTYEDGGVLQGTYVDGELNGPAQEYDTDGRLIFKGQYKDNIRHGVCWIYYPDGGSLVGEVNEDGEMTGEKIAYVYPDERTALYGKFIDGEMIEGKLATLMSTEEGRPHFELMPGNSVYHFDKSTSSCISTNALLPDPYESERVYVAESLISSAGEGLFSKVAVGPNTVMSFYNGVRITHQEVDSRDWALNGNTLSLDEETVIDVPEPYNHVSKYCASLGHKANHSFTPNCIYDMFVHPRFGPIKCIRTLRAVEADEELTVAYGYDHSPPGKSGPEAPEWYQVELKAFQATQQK
The experiment in a line: Inhibition of recombinant human His-tagged SETD7 (1 to 366 residues) expressed in Escherichia coli using H3-21 peptide as susbtrate preincubated for 10 mins in presence of AdoMet followed by substrate addition by fluorescence based SAHH enzyme coupled assay.

Assay [7] is described as follows: Inhibition of Trypanosoma brucei PRMT7 expressed in Escherichia coli preincubated for 10 mins in presence of AdoMet followed by susbtrate addition by fluorescence based SAHH enzyme coupled assay.
The target in assay [8] is Protein arginine N-methyltransferase 1 (Rattus norvegicus, UniProt Q63009). The assay is described as follows: Inhibition of recombinant rat His-tagged PRMT1 expressed in Escherichia coli BL21(DE3) cells using H4-21 peptide as susbtrate preincubated for 10 mins in presence of AdoMet followed by substrate addition by fluorescence based SAHH enzyme coupled assay.
Sequence of Protein arginine N-methyltransferase 1 (Q63009 whole entry): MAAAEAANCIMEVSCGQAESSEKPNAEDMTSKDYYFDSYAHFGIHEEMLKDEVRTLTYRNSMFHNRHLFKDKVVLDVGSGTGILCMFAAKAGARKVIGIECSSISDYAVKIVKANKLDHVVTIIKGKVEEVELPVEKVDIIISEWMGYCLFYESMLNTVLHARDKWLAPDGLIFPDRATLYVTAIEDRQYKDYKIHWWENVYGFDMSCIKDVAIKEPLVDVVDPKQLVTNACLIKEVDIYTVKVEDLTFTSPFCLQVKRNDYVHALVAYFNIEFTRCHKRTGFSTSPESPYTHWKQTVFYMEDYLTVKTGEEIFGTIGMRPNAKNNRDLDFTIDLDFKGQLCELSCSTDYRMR

Sequence of Adenosylhomocysteinase (P23526 whole entry): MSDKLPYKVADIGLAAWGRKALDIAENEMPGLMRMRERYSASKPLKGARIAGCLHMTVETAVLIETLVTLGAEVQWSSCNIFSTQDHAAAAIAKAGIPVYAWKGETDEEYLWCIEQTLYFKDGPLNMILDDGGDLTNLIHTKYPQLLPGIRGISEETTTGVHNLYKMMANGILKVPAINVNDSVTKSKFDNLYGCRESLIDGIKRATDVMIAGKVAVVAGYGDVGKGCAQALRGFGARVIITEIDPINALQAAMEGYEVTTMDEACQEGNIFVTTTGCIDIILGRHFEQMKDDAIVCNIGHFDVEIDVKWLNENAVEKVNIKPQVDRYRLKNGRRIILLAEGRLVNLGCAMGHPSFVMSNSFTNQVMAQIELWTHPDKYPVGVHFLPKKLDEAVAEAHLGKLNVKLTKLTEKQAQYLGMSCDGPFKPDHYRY
Sequence of Indolethylamine N-methyltransferase (O95050 whole entry): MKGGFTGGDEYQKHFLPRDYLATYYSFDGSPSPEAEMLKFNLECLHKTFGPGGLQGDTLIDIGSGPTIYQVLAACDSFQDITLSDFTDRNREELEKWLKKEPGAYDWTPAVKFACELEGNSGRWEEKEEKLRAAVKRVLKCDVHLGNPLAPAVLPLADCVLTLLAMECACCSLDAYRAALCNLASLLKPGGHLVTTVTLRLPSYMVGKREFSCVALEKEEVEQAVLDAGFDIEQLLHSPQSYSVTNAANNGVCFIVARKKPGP

`NC(=O)c1cccc(CCCN(CC[C@H](N)C(=O)O)C[C@H]2O[C@@H](n3cnc4c(N)ncnc43)[C@H](O)[C@@H]2O)c1` registered a Ki in [1] of 0.043 µM. This counts as double-digit nanomolar.

In the case of `Nc1ncnc2c1ncn2[C@@H]1O[C@H](CN(CCc2ccc3ccccc3c2)CC[C@H](N)C(=O)O)[C@@H](O)[C@H]1O`, in assay [1], the affinity, expressed as Ki, was 27.3 µM.

Consider `NC(=O)c1cccc(CCCN(CCC[C@H](N)C(=O)O)C[C@H]2O[C@@H](n3cnc4c(N)ncnc43)[C@H](O)[C@@H]2O)c1`, for which the Ki in [1] stood at 3 µM.

In [1], `Cc1ccc(C(N)=O)cc1CCCN(CC[C@H](N)C(=O)O)C[C@H]1O[C@@H](n2cnc3c(N)ncnc32)[C@H](O)[C@@H]1O` gave a Ki of 0.15 µM.

In turn, `NC(=O)c1ccccc1` [BENZAMIDE] had an inhibitory constant (Ki) in [1] greater than 100 µM.

`NC(=O)c1cccc(C#CCNC[C@H]2O[C@@H](n3cnc4c(N)ncnc43)[C@H](O)[C@@H]2O)c1` had a Ki in [1] of 3 µM. In other words, the single-digit micromolar range.

Regarding `Cc1ccc(CCCN(CC[C@H](N)C(=O)O)C[C@H]2O[C@@H](n3cnc4c(N)ncnc43)[C@H](O)[C@@H]2O)cc1C(N)=O`, the Ki in assay [1] was found to be 0.051 µM.

Molecule `NC(=O)c1cccc(CCN(CC[C@H](N)C(=O)O)C[C@H]2O[C@@H](n3cnc4c(N)ncnc43)[C@H](O)[C@@H]2O)c1` gave a Ki in assay [1] of 10 µM.

For `Cc1ccc(C#CCN(CC[C@H](N)C(=O)O)C[C@H]2O[C@@H](n3cnc4c(N)ncnc43)[C@H](O)[C@@H]2O)cc1C(N)=O`, the Ki in assay [1] amounted to 0.016 µM.

In assay [1], `Nc1ncnc2c1ncn2[C@@H]1O[C@H](CN(CCCc2ccc3ccccc3c2)CC[C@H](N)C(=O)O)[C@@H](O)[C@H]1O` came in with a Ki of 4 µM. Compared with the last molecule, the Ki is about 250-fold higher.

For the molecule `Nc1ncnc2c1ncn2[C@@H]1O[C@H](CN(CCCc2ccc3ccccc3c2)CCC[C@H](N)C(=O)O)[C@@H](O)[C@H]1O`, the affinity in assay [1], expressed as Ki, was 33.3 µM. This Ki is about 8.3-fold higher than that of the molecule before.

Turning to `NC(=O)c1cccc(CCCCN(CCC[C@H](N)C(=O)O)C[C@H]2O[C@@H](n3cnc4c(N)ncnc43)[C@H](O)[C@@H]2O)c1`, in [1], the Ki worked out at 0.54 µM. Compared with the last molecule, the Ki is about 62-fold lower.

In the case of `NC(=O)c1cccc(CCCCN(CC[C@H](N)C(=O)O)C[C@H]2O[C@@H](n3cnc4c(N)ncnc43)[C@H](O)[C@@H]2O)c1`, the Ki in assay [1] amounted to 0.84 µM.

Take `NC(=O)c1cccc(C#CCN(CC[C@H](N)C(=O)O)C[C@H]2O[C@@H](n3cnc4c(N)ncnc43)[C@H](O)[C@@H]2O)c1`: the IC50 in assay [2] is greater than 100 µM; in assay [3], greater than 100 µM; in [4] it was greater than 100 µM; in assay [5], greater than 33 µM; at Adenosylhomocysteinase, greater than 3.7 µM; in assay [6], greater than 100 µM. For the same molecule, the IC50 in assay [7] is greater than 33 µM; in [8] it was greater than 100 µM.

In assay [1], `Nc1ncnc2c1ncn2[C@@H]1O[C@H](CN(CCCc2cccc3ccccc23)CC[C@H](N)C(=O)O)[C@@H](O)[C@H]1O` showed a Ki of 11.8 µM.

`COC(=O)c1cccc(CCCN(CC[C@H](N)C(=O)O)C[C@H]2O[C@@H](n3cnc4c(N)ncnc43)[C@H](O)[C@@H]2O)c1` yielded a Ki in assay [1] of 28 µM.

In the case of `COc1ccc(C(N)=O)cc1C#CCN(CC[C@H](N)C(=O)O)C[C@H]1O[C@@H](n2cnc3c(N)ncnc32)[C@H](O)[C@@H]1O`, the Ki in assay [1] stood at 0.052 µM. This Ki lies about 540-fold lower than the previous one.

As to `Nc1ncnc2c1ncn2[C@@H]1O[C@H](CN(CCCc2cccc3ccccc23)CCC[C@H](N)C(=O)O)[C@@H](O)[C@H]1O`, in assay [1], the Ki was found to be 1.1 µM. This Ki lies about 21-fold higher than the previous one.

For orientation: Ki means the dissociation constant of the complex between target and ligand, obtained from inhibition or displacement. For orientation: IC50 means the midpoint of a concentration-inhibition curve.
